Source: US20220284983A1, “METHODS OF IDENTIFYING CIS-REGULATORY ELEMENTS AND USES THEREOF” (UNIVERSITY HEALTH NETWORK, priority 2019, published 2022)

Test system: 16 breast cancer cell lines
Assay: Drug response of 16 breast cancer cell lines (GRAY dataset, PharmacoGx) compared by presence or absence of CREAM-identified COREs
Type: cell-based
Conditions: >1 = higher sensitivity when CORE present
Text: For example, in methods involving assessing drug sensitivity, for each CORE, average drug sensitivity of the samples with that CORE can be divided to the average drug sensitivity of the samples without that CORE. Then the COREs can be sorted based on the obtained fold changes and COREs with top fold changes can be selected.
Therefore, in some embodiments, the top COREs can be determined as being the COREs with a minimum FDR (False Discovery Rate) after significance after multiple hypothesis correction with dindex>1 (where dindex is a measure of hazard). The FDR indicates the significance or effect of association between existence (in the case of binary features using COREs) or values of that feature and the output value (like drug sensitivity in case of biomarker discovery). The FDR is a corrected p-value for multiple hypothesis. Then the COREs that exist in less than N samples may be further filtered. The value of N may be 2 or more and depends on the particular COREs and the prognosis being predicted. For some studies described herein N was chosen to be 5. As an optional step, the remaining COREs may be combined to result in the CORE signatures that may be used for a multivariate model. In some embodiments, Fold Change may be used instead of FDR in which case for each CORE, the average drug sensitivity of the samples with that CORE can be divided by the average drug sensitivity of the samples without that CORE. Then the COREs can be sorted based on the obtained fold changes and the COREs with the top fold changes can be selected.
CREAM was tested for biomarker discovery, for drug response, using 16 breast cancer cell lines (AU565, BT549, HCC1143, HCC1395, HCC1419, HCC1806, HCC1937, HCC3153, HCC38, HCC70, MDAMB157, MDAMB361, MDAMB453, MX1, T47D, ZR751) with available ATAC-seq profiles and response to PD98059 (a non-ATP competitive MEK inhibitor), and Floxuridine (an antimetabolite agent), as part of the data available in PharmacoGx R package (version 2.0.5) developed by Haibe-Kains laboratory. There are currently no known biomarker for response to PD98059 and Floxuridine.
The columns in each Table are: 1) chromosome regions of the COREs; 2) pvalue; 3) Fold change.
Fold change tells you if presence of a CORE results in higher or lower sensitivity. If Fold Change is great than 1, it means that presence of a CORE results in higher sensitivity and Fold Change is less than 1, it means that presence of a CORE results in lower sensitivity.

O=c1[nH]c(=O)n([C@H]2C[C@H](O)[C@@H](CO)O2)cc1F [Floxuridine]
Fold change (Floxuridine sensitivity with vs without CORE chr2-36473442-37039510): 0.6674
Fold change (Floxuridine sensitivity with vs without CORE chr3-69004922-69292456): 0.6617
Fold change (Floxuridine sensitivity with vs without CORE chr4-99547495-99584170): 0.5406
Fold change (Floxuridine sensitivity with vs without CORE chr5-167696005-167914094): 0.629
Fold change (Floxuridine sensitivity with vs without CORE chr6-16577121-16782003): 0.5777
Fold change (Floxuridine sensitivity with vs without CORE chr15-60619092-60725509): 0.7009
Fold change (Floxuridine sensitivity with vs without CORE chr16-29801700-30154789): 1.653
Fold change (Floxuridine sensitivity with vs without CORE chr16-67184267-67407032): 2.017
Fold change (Floxuridine sensitivity with vs without CORE chr17-21102597-21252333): 0.699

COc1cccc(-c2cc(=O)c3ccccc3o2)c1N [PD98059]
Fold change (PD98059 sensitivity with vs without CORE chr2-75602732-75966190): 0.5231
Fold change (PD98059 sensitivity with vs without CORE chr6-126063660-126362254): 0.4327
Fold change (PD98059 sensitivity with vs without CORE chr7-54328557-56189467): 0.5362
Fold change (PD98059 sensitivity with vs without CORE chr9-75681937-75835570): 0.538
Fold change (PD98059 sensitivity with vs without CORE chr9-103348375-103365047): 0.4902
Fold change (PD98059 sensitivity with vs without CORE chr9-130150616-131799038): 1.906
Fold change (PD98059 sensitivity with vs without CORE chr9-139257512-140211180): 1.864
Fold change (PD98059 sensitivity with vs without CORE chr11-694436-876984): 2.17
Fold change (PD98059 sensitivity with vs without CORE chr11-34183346-34607941): 1.859
Fold change (PD98059 sensitivity with vs without CORE chr15-40330702-40453457): 2.206
Fold change (PD98059 sensitivity with vs without CORE chr16-4965308-5008584): 1.983
Fold change (PD98059 sensitivity with vs without CORE chr16-53766187-53861966): 0.4902
Fold change (PD98059 sensitivity with vs without CORE chr17-21102597-21252333): 0.5247
Fold change (PD98059 sensitivity with vs without CORE chr19-45765981-46636866): 1.904
Fold change (PD98059 sensitivity with vs without CORE chr20-9819285-10752699): 0.5253
